Consider 27 molecules from patent US20160326142A1, “PYRAZOLE CARBOXAMIDE COMPOUNDS, COMPOSITIONS AND METHODS OF USE” (Genentech, Inc., priority 2012, published 2016).

As usually defined, the Ki is a measure of affinity in units of concentration, obtained from inhibition or displacement. Read a high Ki as a looser hold on the target.

In this test the target is T1, ITK (Homo sapiens, UniProt Q08881).
T1 construct: purchased Invitrogen PV3875
T1 sequence (Q08881 1-620): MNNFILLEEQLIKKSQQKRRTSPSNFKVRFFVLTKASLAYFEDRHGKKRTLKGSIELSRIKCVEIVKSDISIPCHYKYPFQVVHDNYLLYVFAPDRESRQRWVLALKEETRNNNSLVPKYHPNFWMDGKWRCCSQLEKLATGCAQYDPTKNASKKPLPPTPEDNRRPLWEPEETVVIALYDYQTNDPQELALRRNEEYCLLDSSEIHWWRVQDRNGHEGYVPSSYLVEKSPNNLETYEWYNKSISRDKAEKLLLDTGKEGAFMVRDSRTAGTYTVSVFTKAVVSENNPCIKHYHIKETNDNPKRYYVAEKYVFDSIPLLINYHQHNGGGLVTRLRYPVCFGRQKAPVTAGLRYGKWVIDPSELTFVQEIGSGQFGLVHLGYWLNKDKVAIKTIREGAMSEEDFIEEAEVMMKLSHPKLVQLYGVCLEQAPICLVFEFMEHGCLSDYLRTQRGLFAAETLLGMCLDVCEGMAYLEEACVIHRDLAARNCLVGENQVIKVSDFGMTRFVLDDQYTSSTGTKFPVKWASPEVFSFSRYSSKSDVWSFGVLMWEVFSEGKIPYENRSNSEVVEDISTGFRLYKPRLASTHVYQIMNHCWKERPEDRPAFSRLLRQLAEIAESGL
The test can be described thus: ITK enzyme assay (Caliper or LCMS peptide phosphorylation). The format is biochemical. Particulars: purified ITK (Invitrogen PV3875), 20 μM ATP, Ki by Morrison's quadratic equation. The protocol:
The ability of purified ITK (Invitrogen PV3875) to catalyze peptide phosphorylation is monitored using a Caliper LabChip 3000 microfluidic unit (Caliper assay) or by liquid chromatography-mass spectrometry (LCMS) using a Waters Acquity system (LCMS assay). […] Reactions are quenched by the addition of 2,2′,2″,2′″-(ethane-1,2-diyldinitrilo)tetraacetic acid (50 mM final). Non-phosphorylated substrate and phosphorylated product peptides are separated and quantified using a Caliper LabChip 3000 instrument. […] Reactions are quenched by the addition of trichloroacetic acid (5% v/v final). Non-phosphorylated substrate and phosphorylated product peptides are separated by ultra performance LC and detected by a coupled triple quadrupole MS device applying multiple reaction monitoring (MRM) for quantification. The area of the MRM-extracted mass signal is used to assess the inhibition by test compounds. Equilibrium dissociation constant (Ki) values for ITK inhibitors are calculated from plots of activity vs. inhibitor concentration using Morrison's quadratic equation that accounts for the potential of tight binding, and by also applying the conversion factor that accounts for competitive inhibition and the concentration of ATP used in the assay relative to its apparent Michaelis constant (Km,app).
Consider `CC1(C)CCc2c(C(=O)Nc3cnn(C(CN4CCCC4=O)c4ccccc4)c3)n[nH]c2C1` (racemic) [Example 76, 6,6-dimethyl-N-(1-(2-(2-oxopyrrolidin-1-yl)-1-phenylethyl)-1H-pyrazol-4-yl)-4,5,6,7-tetrahydro-1H-indazole-3-carboxamide], for which the inhibitory constant (Ki) stood at 4 nM.
For `N#Cc1cccc(Cn2cc(NC(=O)c3n[nH]c4c3CCC(c3cn[nH]c3)C4)cn2)c1` (single isomer, unassigned) [Example 1a, N-(1-(3-cyanobenzyl)-1H-pyrazol-4-yl)-6-(1H-pyrazol-4-yl)-4,5,6,7-tetrahydro-1H-indazole-3-carboxamide] the value was 9.4 nM; for `N#Cc1cccc(Cn2cc(NC(=O)c3n[nH]c4c3CCC(c3cn[nH]c3)C4)cn2)c1` (single isomer, unassigned) [Example 1b, N-(1-(3-cyanobenzyl)-1H-pyrazol-4-yl)-6-(1H-pyrazol-4-yl)-4,5,6,7-tetrahydro-1H-indazole-3-carboxamide], 8.3 nM; for `N#Cc1cccc(Cn2cc(NC(=O)c3n[nH]c4c3CC(c3cn[nH]c3)CC4)cn2)c1` (single isomer, unassigned) [Example 2a, N-(1-(3-cyanobenzyl)-1H-pyrazol-4-yl)-5-(1H-pyrazol-4-yl)-4,5,6,7-tetrahydro-1H-indazole-3-carboxamide], 68 nM.
For `N#Cc1cccc(Cn2cc(NC(=O)c3n[nH]c4c3CC(c3cn[nH]c3)CC4)cn2)c1` (single isomer, unassigned) [Example 2b, N-(1-(3-cyanobenzyl)-1H-pyrazol-4-yl)-5-(1H-pyrazol-4-yl)-4,5,6,7-tetrahydro-1H-indazole-3-carboxamide] the value was 34 nM; for `N#Cc1cccc(Cn2cc(NC(=O)c3n[nH]c4c3CCC(c3cncnc3)C4)cn2)c1` (single isomer, unassigned) [Example 4a, N-(1-(3-cyanobenzyl)-1H-pyrazol-4-yl)-6-(pyrimidin-5-yl)-4,5,6,7-tetrahydro-1H-indazole-3-carboxamide], 360 nM; for `N#Cc1cccc(Cn2cc(NC(=O)c3n[nH]c4c3CCC(c3cncnc3)C4)cn2)c1` (single isomer, unassigned) [Example 4b, N-(1-(3-cyanobenzyl)-1H-pyrazol-4-yl)-6-(pyrimidin-5-yl)-4,5,6,7-tetrahydro-1H-indazole-3-carboxamide], 240 nM.
For `N#Cc1cccc(Cn2cc(NC(=O)c3n[nH]c4c3CCC(O)C4)cn2)c1` (single isomer, unassigned) [Example 5a, N-(1-(3-cyanobenzyl)-1H-pyrazol-4-yl)-6-hydroxy-4,5,6,7-tetrahydro-1H-indazole-3-carboxamide] the value was 310 nM.
Regarding `N#Cc1cccc(Cn2cc(NC(=O)c3n[nH]c4c3CCC(O)C4)cn2)c1` (single isomer, unassigned) [Example 5b, N-(1-(3-cyanobenzyl)-1H-pyrazol-4-yl)-6-hydroxy-4,5,6,7-tetrahydro-1H-indazole-3-carboxamide], the affinity corresponds to a Ki of 380 nM.
Next, `CC1CCc2[nH]nc(C(=O)Nc3cnn(Cc4ccccc4)c3)c2C1` (single isomer, unassigned) [Example 8a, N-(1-benzyl-1H-pyrazol-4-yl)-5-methyl-4,5,6,7-tetrahydro-1H-indazole-3-carboxamide]: 70 nM.
`CC1CCc2[nH]nc(C(=O)Nc3cnn(Cc4ccccc4)c3)c2C1` (single isomer, unassigned) [Example 8b, N-(1-benzyl-1H-pyrazol-4-yl)-5-methyl-4,5,6,7-tetrahydro-1H-indazole-3-carboxamide] gave a Ki of 77 nM.
On to `O=C(Nc1cnn(Cc2ccccc2)c1)c1n[nH]c2c1CCC(CO)C2` (single isomer, unassigned) [Example 14a, N-(1-benzyl-1H-pyrazol-4-yl)-6-(hydroxymethyl)-4,5,6,7-tetrahydro-1H-indazole-3-carboxamide], for which affinity was put at a Ki of 120 nM.
`O=C(Nc1cnn(Cc2ccccc2)c1)c1n[nH]c2c1CCC(CO)C2` (single isomer, unassigned) [Example 14b, N-(1-benzyl-1H-pyrazol-4-yl)-6-(hydroxymethyl)-4,5,6,7-tetrahydro-1H-indazole-3-carboxamide] had an inhibitory constant (Ki) of 21 nM.
Next, `CN(C)CCC(c1ccccc1)n1cc(NC(=O)c2n[nH]c3c2CCC2(COC2)C3)cn1` (single isomer, unassigned) [Example 15a, N-(1-(3-(dimethylamino)-1-phenylpropyl)-1H-pyrazol-4-yl)-1,4,5,7-tetrahydrospiro[indazole-6,3′-oxetane]-3-carboxamide]: 11 nM.
Next, `CN(C)CCC(c1ccccc1)n1cc(NC(=O)c2n[nH]c3c2CCC2(COC2)C3)cn1` (single isomer, unassigned) [Example 15b, N-(1-(3-(dimethylamino)-1-phenylpropyl)-1H-pyrazol-4-yl)-1,4,5,7-tetrahydrospiro[indazole-6,3′-oxetane]-3-carboxamide]: 100 nM; `CN(C)CCC(c1ccccc1)n1cc(NC(=O)c2n[nH]c3c2CCC2(CC2)C3)cn1` (single isomer, unassigned) [Example 16a, N-(1-(3-(dimethylamino)-1-phenylpropyl)-1H-pyrazol-4-yl)-1′,4′,5′,7′-tetrahydrospiro[cyclopropane-1,6′-indazole]-3′-carboxamide]: 0.5 nM; `CN(C)CCC(c1ccccc1)n1cc(NC(=O)c2n[nH]c3c2CCC2(CC2)C3)cn1` (single isomer, unassigned) [Example 16b, N-(1-(3-(dimethylamino)-1-phenylpropyl)-1H-pyrazol-4-yl)-1′,4′,5′,7′-tetrahydrospiro[cyclopropane-1,6′-indazole]-3′-carboxamide]: 7.9 nM.
Molecule `O=C(Nc1cnn(Cc2ccccc2)c1)c1n[nH]c2c1C1CC1CC2` (single isomer, unassigned) [Example 23a, N-(1-benzyl-1H-pyrazol-4-yl)-3,4,5,5a,6,6a-hexahydrocyclopropa[e]indazole-1-carboxamide] returned a Ki of 24 nM.
For `O=C(Nc1cnn(Cc2ccccc2)c1)c1n[nH]c2c1C1CC1CC2` (single isomer, unassigned) [Example 23b, N-(1-benzyl-1H-pyrazol-4-yl)-3,4,5,5a,6,6a-hexahydrocyclopropa[e]indazole-1-carboxamide] the value was 550 nM; for `CC[C@@H](c1ccccc1)n1cc(NC(=O)c2n[nH]c3c2CC2CC2C3)cn1` (single isomer, unassigned) [Example 24a], 9.4 nM.
For `CC[C@@H](c1ccccc1)n1cc(NC(=O)c2n[nH]c3c2CC2CC2C3)cn1` (single isomer, unassigned) [Example 24b] the value was 3.5 nM.
For `CC[C@@H](c1ccccc1)n1cc(NC(=O)c2n[nH]c3c2C2CC2CC3)cn1` (single isomer, unassigned) [Example 25a] the value was 1.7 nM.
For the molecule `CC[C@@H](c1ccccc1)n1cc(NC(=O)c2n[nH]c3c2C2CC2CC3)cn1` (single isomer, unassigned) [Example 25b], the Ki was 94 nM.
For `CN(C)CCC(c1ccccc1)n1cc(NC(=O)c2n[nH]c3c2C2CC2CC3)cn1` (single isomer, unassigned) [Example 26a, N-(1-(3-(dimethylamino)-1-phenylpropyl)-1H-pyrazol-4-yl)-3,4,5,5a,6,6a-hexahydrocyclopropa[e]indazole-1-carboxamide] the value was 2 nM.
Next, `CN(C)CCC(c1ccccc1)n1cc(NC(=O)c2n[nH]c3c2C2CC2CC3)cn1` (single isomer, unassigned) [Example 26b, N-(1-(3-(dimethylamino)-1-phenylpropyl)-1H-pyrazol-4-yl)-3,4,5,5a,6,6a-hexahydrocyclopropa[e]indazole-1-carboxamide]: 46 nM.
For `CN(C)CCC(c1ccccc1)n1cc(NC(=O)c2n[nH]c3c2C2CC2CC3)cn1` (single isomer, unassigned) [Example 26c, N-(1-(3-(dimethylamino)-1-phenylpropyl)-1H-pyrazol-4-yl)-3,4,5,5a,6,6a-hexahydrocyclopropa[e]indazole-1-carboxamide] the value was 22 nM.
Take `CN(C)CCC(c1ccccc1)n1cc(NC(=O)c2n[nH]c3c2C2CC2CC3)cn1` (single isomer, unassigned) [Example 26d, N-(1-(3-(dimethylamino)-1-phenylpropyl)-1H-pyrazol-4-yl)-3,4,5,5a,6,6a-hexahydrocyclopropa[e]indazole-1-carboxamide]: the inhibition constant Ki turned out to be 780 nM.
